Test results reported in patent US20210017607A1, “Methods of Predicting Responsiveness to Cancer Therapies” (The University of Chicago, priority 2019, published 2021).
In brackets after ≈: the same amount, converted by molar mass. Read-outs that look alike come from different tables or passages of the source.

Assays:
[1] = IC90 concentrations stated for in vitro/ex vivo drug treatments; settings: for IC90: read-out: IC90 concentration
ID8 ovarian cancer cells = test: ID8 cells in vitro STING pathway activation (western, ImageStream, ELISA); assay type: cell-based, mouse; settings: for STING pathway activation within ID8-PTEN^−/− cells / IFNB1 levels in combination with STING agonist DMXAA, ID8-PTEN^−/− cells: 36 hours; for IFNB1 levels in combination with STING agonist DMXAA, ID8-PTEN^−/− cells: ELISA
Experimental: FIGS. 56A and 56B. […] (56A) PTEN-proficient (PTEN^+/+) and deficient (PTEN^−/−) ID8 ovarian cancer cells were treated with DMXAA (50 μg/mL) for 0, 1, 6, 12, 24 and 36 hours. Nuclear extracts were probed for localization of p-IRF3 and p-NF-kB, markers of STING pathway activation. n=1 independent experiment. (56B) Wild-type (PTEN^+/+) and PTEN-deficient (PTEN^−/−) Myc-CAP (prostate) and ID8 (ovarian) cancer cells were treated with DMXAA (50 μg/mL) for 36 hours. The supernatants were analyzed by ELISA for IFN-β1 release. n=3 independent experiments.
FIGS. 57A-57C. […] PTEN-proficient (PTEN+/+) and deficient (PTEN−/−) ID8 ovarian cancer cells were treated with DMXAA (50 μg/mL) for 0, 12, 24 and 36 hours. (57A) The nuclear localization of p-IRF3 and p-NFkB was analyzed by ImageStream. The overlap of the two generates a white color that scores for nuclear localization of pIRF3. (57B) Graphical representation of nuclear localization of pIRF3 and p-NF-kB at 12, 24, and 36 hours after DMXAA treatment, relative to untreated groups in ID8 wild-type and PTEN^−/− cells. n=3 independent experiments.
FIGS. 58A and 58B. […] (58A) PTEN-proficient (PTEN^+/+) and deficient (PTEN^−/−) ID8 ovarian cancer cells were treated with IC90 concentrations of pan-PI3K inhibitors, either copanlisib (100 nM) or BKM120 (1000 nM) for 36 hours in presence or absence of STING agonists, DMXAA (50 μg/mL, 1 hour at the end of experiment). The activation status of both PI3K and STING signaling pathways were probed with the indicated antibodies by western blotting. n=2 independent experiments. (58B) Cells were treated as described in (58A), with the exception that concomitant DMXAA treatment was carried out for 36 hours. The supernatants were analyzed by ELISA for IFN-β1 release. n=3 independent experiments.
Cytokine Array/IFNβ1 ELISA. Supernatants from untreated or drug treated cancer cell lines and bone marrow derived macrophages were collected at 36 hours and spun down at 2000×g for 5 min at 4° C. to remove cellular debris. These clear supernatants were processed for detection of Type I Interferon by ELISA (LEGEND MAX™ Mouse IFNβ1 ELISA, Biolegend®) or for determination of a panel of cytokines/chemokines using LEGENDplex™ array (Mouse Anti-Virus Response Panel, Biolegend®) as per instructions in protocol provided.
Western blotting. RIPA buffer (Boston BioProducts) supplemented with protease (Roche®) and HALT phosphatase inhibitor cocktail (Thermo Scientific®) was used for preparation of total cell lysates. For western blotting, the following antibodies were used from Cell Signaling Technology®: Polyclonal rabbit anti-mouse-, phospho-AKT, total AKT, c-GAS, STING, phospho-IRF3, total IRF3, phospho-TBK1, total TBK1, PTEN, phospho NF-kB, total NF-kB, p53, lamin B1, β-actin, alpha-tubulin, and GAPDH. Images of scanned blots were processed using ADOBE Photoshop.
Image Stream Analysis. PTEN-proficient and deficient ID8 ovarian cancer cells were treated with DMXAA (50 ug/mL) for 0, 12, 24, and 36 hours. After termination at endpoints, cells were stained with primary antibodies—anti-mouse p-IRF3 (Cell Signaling Technology®), p-NFkB (Cell Signaling Technology®), followed by incubation with flurochrome tagged secondary antibodies and DAPI. Images of nuclear localization of p-IRF3 and p-NF-kB within single cells were acquired using ImageStreamg®^x Mark II (Amnis®) and data obtained was analyzed using IDEAS® software.

[2] = FIG. 50, Myc-CAP-PTEN^−/− tumor suspensions
[3] = FIG. 58, ID8 ovarian cancer cells
[4] = FIG. 38, Myc-CAP-PTEN+/+ and PTEN−/− tumor suspensions

IC90 [1, 2] [µM]	IC90 ([1]; Myc-CAP-PTEN^−/− cells in vitro (FIG. 35)) [µM]	Compound	IC90 [1, 3] [µM]	STING pathway activation within ID8-PTEN^−/− cells (ID8 ovarian cancer cells)	IFNB1 levels in combination with STING agonist DMXAA, ID8-PTEN^−/− cells (ID8 ovarian cancer cells)	IC90 [1, 4] [µM]	IC90 concentration [1, 4] [µg/mL]	IC90 concentration [1, 2] [µg/mL]	STING pathway activation after PTEN knockdown (ID8 ovarian cancer cells; DMXAA 50 μg/mL)	IRF3 translocation to the nucleus after PTEN knockdown (ID8 ovarian cancer cells; DMXAA 50 μg/mL, 0-36 hours)
0.5	0.1	COc1c(OCCCN2CCOCC2)ccc2c1N=C(NC(=O)c1cnc(N)nc1)N1CCN=C21 [copanlisib]	0.1	partially restore STING pathway activation	unable to rescue IFNB1 levels	–	–	–	–	–
–	–	Nc1cc(C(F)(F)F)c(-c2cc(N3CCOCC3)nc(N3CCOCC3)n2)cn1 [buparlisib]	1	partially restore STING pathway activation	unable to rescue IFNB1 levels	1	–	–	–	–
–	–	CNCc1ccc(-c2[nH]c3cc(F)cc4c3c2CCNC4=O)cc1 [rucaparib]	–	–	–	0.5	–	–	–	–
–	–	Cc1ccc2c(=O)c3cccc(CC(=O)O)c3oc2c1C [DMXAA, 5,6-Dimethylxanthenone-4-acetic Acid]	–	–	–	–	50 (≈ 177 µM)	50 (≈ 177 µM)	abrogates STING pathway activation	abolishes IRF3 translocation to the nucleus
